Bridge positions count the residues as written; N and C are the ends. Ends that are not written are not given here.
Columns and labels:
Assay type in all cases: cell-based, human
hNav1.1 = experiment: Whole-cell patch clamp, hNav1.1 in HEK293T cells; settings: 10 μM ISTX-I; 50 ms step to -10 mV from -80 mV
Method: (§1) HEK293T (human embryonic kidney) cells were grown in DMEM containing 10% heat-inactivated FBS at 37 °C in a 5% CO2 incubator. The cDNA genes encoding human (h)Nav1.1, (h)Nav1.2, (h)Nav1.3, (h)Nav1.4, (h)Nav1.5, (h)Nav1.6 and (h)Nav1.7 were transiently transfected into HEK293T cells for electrophysiology using Lipofectamine-2000 (Invitrogen) in serum-reduced medium (Opti-MEM, Invitrogen) following the manufacturer’s instructions. The auxiliary subunits hβ1 and enhanced green florescent protein plasmids were cotransfected into HEK293T cells to increase the current density and efficiently select cells with green florescent protein for whole-cell patch-clamp recordings. After 12 h, the HEK293T cells were used for electrophysiological analysis.
(§2) DRG neurons with a large diameter (>[…]) and those with a relatively small diameter (<[…]) were chosen by measuring TTX-s and TTX-r currents, respectively. […] Potassium, calcium, and sodium currents were recorded in experimental cells using whole-cell patch-clamp recordings at room temperature, which were performed with an HEK EPC10 patch-clamp amplifier. […] Experimental data were acquired and analyzed using the programs patch master and Sigmaplot 9.0 (Sigma, USA). […]
(§3) Currents were recorded from experimental cells using whole-cell patch clamptechnique at room temperature (22–25 °C). […]

hNav1.2 = experiment: Whole-cell patch clamp, hNav1.2 in HEK293T cells; settings: 10 μM ISTX-I; 50 ms step to -10 mV from -80 mV
Method: as §1, §2, §3

hNav1.3 = experiment: Whole-cell patch clamp, hNav1.3 in HEK293T cells; settings: 10 μM ISTX-I; 50 ms step to -10 mV from -80 mV
Method: as §1, §2, §3

hNav1.8 = experiment: Whole-cell patch clamp, hNav1.8 in HEK293 cells; settings: legend of Figure S3; concentration not given; 50 ms step to -10 mV, held at -80 mV
Method: Electrophysiological studies.
Currents were recorded from experimental cells using whole-cell patch clamptechnique at room temperature (22–25 °C). The patch pipettes were fabricated from borosilicate glass tubing using a two-stage vertical microelectrode puller (PC-10, Narishige, Japan). After establishing the whole-cell recording configuration, the resting potential was held at −80 mV for at least 5 min to allow adequate equilibration between the micropipette solution and the cell interior. The micropipette solution of sodium currents for dorsal root ganglion neurons contained (in mM): 105 CsF, 35 NaCl, 10 HEPES, 10 EGTA (pH 7.4). The external solution contained (in mM): 50 NaCl, 100 TEA.Cl, 2 KCl, 1.5 CaCl2, 10 HEPES, 1 MgCl2, and 5 glucose (pH 7.4). K+ currents were recorded using an internal solution containing the followings (in mM): KCl 140, MgCl2 2.5, HEPES 10, and EGTA 11 (pH 7.2). The external bathing solution contained the followings (in mM): NaCl 150, KCl 5, CaCl2 25, MgCl2 12, HEPES 10, and D-glucose 10 (pH 7.2). Calcium channel currents were measured using Ba2+ as the charge carrier. The external solution contained (in mM): 160 TEA-Cl, 10 HEPES, 2 BaCl2, 10 glucoses, adjusted to pH 7.4 with TEA-OH. […]
Figure S1. […] The absorbance of the elution was monitored at 280 nm. […]

LCSENGDCAADECCVDTVFEGDMVTRSCEKTTGNFTECPGLTPIA (disulfide 2-14, 8-28, 13-38) [ISTX-I]
effect on hNav1.1 (hNav1.1): no effect
effect on hNav1.2 (hNav1.2): no effect
effect on hNav1.3 (hNav1.3): no effect
effect on hNav1.8 (hNav1.8): No effect
